# Data as given in USRE47689E1, “Compounds for treating spinal muscular atrophy” (PTC Therapeutics, Inc., priority 2011, dated 2019).
# Read-outs that look alike come from different tables or passages of the source.
# Tests used:
# [1] = tested on: SMN2 minigene (full length SMN2 minigene mRNA containing SMN2 exon 7); assay: SMN2 minigene mRNA splicing RT-qPCR assay in cultured cells; type: cell-based, human; conditions: Homo sapiens, HEK293-H, read-out: EC1.5x for production of full length SMN2 mRNA
# Outline: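 Read-out: full-length (exon 7-included) SMN2 minigene mRNA by multiplex RT-qPCR with GAPDH, efficiency-corrected (1+E)^−Ct, GAPDH-normalized and divided by vehicle. Stably transfected HEK293H cells, 24 h compound exposure, duplicates per concentration. Value is EC1.5x, reported as star ranges.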
# [2] = tested on: Smn protein; assay: Smn protein assay in cultured cells (SMN HTRF); type: cell-based, human; conditions: 48 hours; for EC1.5x (concentration giving 1.5-fold Smn protein increase): SMA Type 1 patient fibroblast cells (GM03813), 7-point concentration curve, SMN HTRF, concentration producing 1.5 times Smn protein vs DMSO vehicle control, read-out: EC1.5x for Smn protein expression; for maximum fold (Fold) increase of Smn protein: SMA patient fibroblast cells, 7-point concentration data, fold increase relative to vehicle control (SMN HTRF)
# Outline: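 Lysates in RIPA with protease inhibitors are incubated overnight at room temperature with HTRF anti-SMN antibodies. EC1.5x is derived from fold increase in ΔF over vehicle.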
# [3] = HEK293H cells stably transfected with SMN2-A minigene, 24 hours, 7-point concentration curve, 1.5-fold relative to vehicle-treated cells
structure (smiles),measurement,setting,value
"Cc1cn2cc(-c3cc4ccc(N5C[C@H](O)[C@@H](N6CCCC6)C5)cc4oc3=O)nc2c(C)n1 [Compound 739, 3-(6,8-dimethylimidazo[1,2-a]pyrazin-2-yl)-7-[(3′S,4′S)-4′-hydroxy-1,3′-bipyrrolidin-1′-yl]-2H-chromen-2-one]",EC (1.5-fold),[1]; [3],< 0.1 µM
same,EC1.5x (concentration giving 1.5-fold Smn protein increase),[2],< 300 nM
same,maximum fold (Fold) increase of Smn protein,[2],**** (fold increase between >1.5 and ≤1.65)
same,melting point,,273 to 275 °C
"CN1CCN(c2ccc3cc(-c4cn5cc(F)cnc5n4)c(=O)oc3c2)CC1 [Cpd 480, 3-(6-fluoroimidazo[1,2-a]pyrimidin-2-yl)-7-(4-methylpiperazin-1-yl)-2H-chromen-2-one]",EC (1.5-fold),[1]; [3],3 to 30 µM
same,maximum fold (Fold) increase of Smn protein,[2],* (maximum fold increase of ≤1.2)
same,melting point,,275 to 280 °C
"C[C@@H]1CN(c2ccc3cc(-c4cn5cccnc5n4)c(=O)oc3c2)C[C@H](C)N1 [Compound 107, 7-[(3R,5S)-3,5-dimethylpiperazin-1-yl]-3-(imidazo[1,2-a]pyrimidin-2-yl)-2H-chromen-2-one]",EC (1.5-fold),[1]; [3],0.1 to 0.3 µM
same,EC1.5x (concentration giving 1.5-fold Smn protein increase),[2],300 to 1000 nM
same,maximum fold (Fold) increase of Smn protein,[2],**** (fold increase between >1.5 and ≤1.65)
same,melting point,,256 to 258 °C
"Cc1nc(Cl)cn2cc(-c3cc4ccc(N5CCN(C)[C@H](C)C5)cc4oc3=O)nc12 [Compound 726, 3-(6-chloro-8-methylimidazo[1,2-a]pyrazin-2-yl)-7-[(3R)-3,4-dimethylpiperazin-1-yl]-2H-chromen-2-one]",EC (1.5-fold),[1]; [3],< 0.1 µM
same,EC1.5x (concentration giving 1.5-fold Smn protein increase),[2],300 to 1000 nM
same,maximum fold (Fold) increase of Smn protein,[2],**** (fold increase between >1.5 and ≤1.65)
same,melting point,,250 to 252 °C
"Cc1ccn2cc(-c3cc4ccc(NC5CCN(C)CC5)cc4oc3=O)nc2c1 [Compound 474, 3-(7-methylimidazo[1,2-a]pyridin-2-yl)-7-[(1-methylpiperidin-4-yl)amino]-2H-chromen-2-one]",EC (1.5-fold),[1]; [3],1 to 3 µM
same,maximum fold (Fold) increase of Smn protein,[2],* (maximum fold increase of ≤1.2)
same,melting point,,224 to 230 °C
"CC1(C)CN(c2ccc3cc(-c4cn5cc(F)ccc5n4)c(=O)oc3c2)CCN1 [Compound 508, 7-(3,3-dimethylpiperazin-1-yl)-3-(6-fluoroimidazo[1,2-a]pyridin-2-yl)-2H-chromen-2-one]",EC (1.5-fold),[1]; [3],0.3 to 1 µM
same,maximum fold (Fold) increase of Smn protein,[2],** (fold increase between >1.2 and ≤1.35)
same,melting point,,182 to 185 °C
"CNCCCCc1ccc2cc(-c3cn4cc(C)nc(C)c4n3)c(=O)oc2c1 [Compound 952, 3-(6,8-dimethylimidazo[1,2-a]pyrazin-2-yl)-7-[4-(methylamino)butyl]-2H-chromen-2-one]",EC (1.5-fold),[1]; [3],< 0.1 µM
same,EC1.5x (concentration giving 1.5-fold Smn protein increase),[2],< 300 nM
same,maximum fold (Fold) increase of Smn protein,[2],***** (fold increase >1.65)
same,melting point,,180 to 184 °C
"Cc1cn2cc(-c3cc4ccc(N5CCC(N6CCOCC6)C5)cc4oc3=O)cc2c(C)n1 (stereo not shown) [Compound 757, 3-(1,3-dimethylpyrrolo[1,2-a]pyrazin-7-yl)-7-[3-(morpholin-4-yl)pyrrolidin-1-yl]-2H-chromen-2-one]",EC (1.5-fold),[1]; [3],0.3 to 1 µM
same,EC1.5x (concentration giving 1.5-fold Smn protein increase),[2],1000 to 3000 nM
same,maximum fold (Fold) increase of Smn protein,[2],*** (fold increase between >1.35 and ≤1.5)
same,melting point,,118 to 122 °C
"O=c1oc2cc(CNC(CO)CO)ccc2cc1-c1nc2ccccc2s1 [Compound 99, 3-(1,3-benzothiazol-2-yl)-7-{[(1,3-dihydroxypropan-2-yl)amino]methyl}-2H-chromen-2-one]",EC (1.5-fold),[1]; [3],3 to 30 µM
same,maximum fold (Fold) increase of Smn protein,[2],* (maximum fold increase of ≤1.2)
same,melting point,,194 to 197 °C
"Cc1cc(F)c2nc(-c3cc4ccc(N5CCN6CCC5CC6)cc4oc3=O)cn2c1 [Compound 561, 7-(1,4-diazabicyclo[3.2.2]non-4-yl)-3-(8-fluoro-6-methylimidazo[1,2-a]pyridin-2-yl)-2H-chromen-2-one]",EC (1.5-fold),[1]; [3],0.3 to 1 µM
same,EC1.5x (concentration giving 1.5-fold Smn protein increase),[2],< 300 nM
same,maximum fold (Fold) increase of Smn protein,[2],**** (fold increase between >1.5 and ≤1.65)
same,melting point,,287 to 297 °C
"Cc1cn2cc(-c3cc4ccc(CCN(CCO)CCO)cc4oc3=O)nc2c(C)n1 [Compound 875, 7-{2-[bis(2-hydroxyethyl)amino]ethyl}-3-(6,8-dimethylimidazo[1,2-a]pyrazin-2-yl)-2H-chromen-2-one]",EC (1.5-fold),[1]; [3],< 0.1 µM
same,EC1.5x (concentration giving 1.5-fold Smn protein increase),[2],< 300 nM
same,maximum fold (Fold) increase of Smn protein,[2],**** (fold increase between >1.5 and ≤1.65)
same,melting point,,184 to 188 °C
"CN(C)c1ccc(-c2cc3ccc(N4CCNCC4)cc3oc2=O)cn1 [Compound 547, 3-[6-(dimethylamino)pyridin-3-yl]-7-(piperazin-1-yl)-2H-chromen-2-one]",EC (1.5-fold),[1]; [3],3 to 30 µM
same,maximum fold (Fold) increase of Smn protein,[2],* (maximum fold increase of ≤1.2)
same,melting point,,179 to 181 °C
"Cc1cccn2cc(-c3cc4ccc(N5CCCN(C)CC5)cc4oc3=O)nc12 [Compound 246, 7-(4-methyl-1,4-diazepan-1-yl)-3-(8-methylimidazo[1,2-a]pyridin-2-yl)-2H-chromen-2-one]",EC (1.5-fold),[1]; [3],0.1 to 0.3 µM
same,EC1.5x (concentration giving 1.5-fold Smn protein increase),[2],1000 to 3000 nM
same,maximum fold (Fold) increase of Smn protein,[2],*** (fold increase between >1.35 and ≤1.5)
same,melting point,,138 to 140 °C
"C[C@@H]1CN(c2cc(F)c3cc(-c4nc5c(F)cccc5o4)c(=O)oc3c2)C[C@H](C)N1 [Compound 367, 7-[(3R,5S)-3,5-dimethylpiperazin-1-yl]-5-fluoro-3-(4-fluoro-1,3-benzoxazol-2-yl)-2H-chromen-2-one]",EC (1.5-fold),[1]; [3],0.1 to 0.3 µM
same,maximum fold (Fold) increase of Smn protein,[2],*** (fold increase between >1.35 and ≤1.5)
same,melting point,,268 to 272 °C
"O=c1oc2cc(N3CCCNCC3)ccc2cc1-c1cn2ccncc2n1 [Compound 454, 7-(1,4-diazepan-1-yl)-3-(imidazo[1,2-a]pyrazin-2-yl)-2H-chromen-2-one]",EC (1.5-fold),[1]; [3],< 0.1 µM
same,EC1.5x (concentration giving 1.5-fold Smn protein increase),[2],3000 to 10000 nM
same,maximum fold (Fold) increase of Smn protein,[2],*** (fold increase between >1.35 and ≤1.5)
same,melting point,,247 to 249 °C
"Cc1cn2cc(-c3cc4ccc(N5CCC(N(C)C)CC5)cc4oc3=O)nc2c(C)n1 [Compound 921, 7-[4-(dimethylamino)piperidin-1-yl]-3-(6,8-dimethylimidazo[1,2-a]pyrazin-2-yl)-2H-chromen-2-one]",EC (1.5-fold),[1]; [3],< 0.1 µM
same,EC1.5x (concentration giving 1.5-fold Smn protein increase),[2],< 300 nM
same,maximum fold (Fold) increase of Smn protein,[2],**** (fold increase between >1.5 and ≤1.65)
same,melting point,,189 to 193 °C
"O=c1oc2cc(N3CCNCC3)c(F)cc2cc1-c1nc2ccccc2s1 [Compound 157, 3-(1,3-benzothiazol-2-yl)-6-fluoro-7-(piperazin-1-yl)-2H-chromen-2-one]",EC (1.5-fold),[1]; 24 h,0.1 to 0.3 µM
same,maximum fold (Fold) increase of Smn protein,[2],* (maximum fold increase of ≤1.2)
same,melting point,,255 to 260 °C
"COc1cccc(-c2cc3ccc(N4C[C@@H](C)N[C@@H](C)C4)cc3oc2=O)n1 [Compound 315, 7-[(3R,5S)-3,5-dimethylpiperazin-1-yl]-3-(6-methoxypyridin-2-yl)-2H-chromen-2-one]",EC (1.5-fold),[1]; [3],0.3 to 1 µM
same,maximum fold (Fold) increase of Smn protein,[2],* (maximum fold increase of ≤1.2)
same,melting point,,175 to 177 °C
"Cc1cn2cc(-c3cc4ccc(N5CCN(CCCO)[C@@H](C)C5)cc4oc3=O)nc2c(C)n1 [Compound 907, 3-(6,8-dimethylimidazo[1,2-a]pyrazin-2-yl)-7-[(3S)-4-(3-hydroxypropyl)-3-methylpiperazin-1-yl]-2H-chromen-2-one]",EC (1.5-fold),[1]; [3],< 0.1 µM
same,EC1.5x (concentration giving 1.5-fold Smn protein increase),[2],< 300 nM
same,maximum fold (Fold) increase of Smn protein,[2],**** (fold increase between >1.5 and ≤1.65)
same,melting point,,187 to 190 °C
"Cc1nccn2cc(-c3cc4ccc(N5CCN6CCC[C@H]6C5)cc4oc3=O)cc12 [Compound 642, 7-[(8aS)-hexahydropyrrolo[1,2-a]pyrazin-2(1H)-yl]-3-(1-methylpyrrolo[1,2-a]pyrazin-7-yl)-2H-chromen-2-one]",EC (1.5-fold),[1]; [3],< 0.1 µM
same,maximum fold (Fold) increase of Smn protein,[2],** (fold increase between >1.2 and ≤1.35)
same,melting point,,175 to 178 °C
"CCCN1CCC(c2ccc3cc(-c4cn5cc(C)nc(C)c5n4)c(=O)oc3c2)CC1 [Compound 842, 3-(6,8-dimethylimidazo[1,2-a]pyrazin-2-yl)-7-(1-propylpiperidin-4-yl)-2H-chromen-2-one]",EC (1.5-fold),[1]; [3],< 0.1 µM
same,EC1.5x (concentration giving 1.5-fold Smn protein increase),[2],< 300 nM
same,maximum fold (Fold) increase of Smn protein,[2],***** (fold increase >1.65)
same,melting point,,208 to 212 °C
"Cc1ccc2nc(-c3cc4ccc(N5CCN(C)CC5)cc4oc3=O)cn2c1 [Compound 81, 3-(6-methylimidazo[1,2-a]pyridin-2-yl)-7-(4-methylpiperazin-1-yl)-2H-chromen-2-one]",EC (1.5-fold),[1]; [3],0.3 to 1 µM
same,EC1.5x (concentration giving 1.5-fold Smn protein increase),[2],3000 to 10000 nM
same,maximum fold (Fold) increase of Smn protein,[2],*** (fold increase between >1.35 and ≤1.5)
same,melting point,,267 °C (dec.)
"Cc1cnc2nc(-c3cc4ccc(N5CCN(C)CC5)cc4oc3=O)cn2c1 [Compound 242, 3-(6-methylimidazo[1,2-a]pyrimidin-2-yl)-7-(4-methylpiperazin-1-yl)-2H-chromen-2-one]",EC (1.5-fold),[1]; [3],0.3 to 1 µM
same,maximum fold (Fold) increase of Smn protein,[2],*** (fold increase between >1.35 and ≤1.5)
same,melting point,,> 310 °C
